ChEMBL document CHEMBL3879901, “Substituted isoquinolin-1(2H)-ones, and methods of use thereof” (2012)
pEC50: −log10 of the molar value. Activity calls are given as the source filed them. No cut-off for these calls is given here.

Tests used:
Rattus norvegicus [1] = test: Antiarthritic activity in collagen-induced Lewis rat arthritis model assessed as reduction in ankle joint swelling administered for 6 days post arthritis induction measured every day during compound dosing and day 7 of post last dose in presence of mTOR inhibitor rapamycin; format: functional
Rattus norvegicus [2] = test: Antiarthritic activity in type 2 collagen-induced Lewis rat arthritis model assessed as reduction in ankle diameter at 10 to 60 mg/kg, po bid administered for 6 days measured every day of compound dosing and day 7 of post last dose; format: functional, organism-based
Rattus norvegicus [3] = test: Antiarthritic activity in type 2 collagen-induced po dosed Lewis rat arthritis model assessed as reduction in bone resorption in knee administered every 12 hrs for 16 days measured on day 17 of post last dose by toluidine blue staining-based assay; format: functional, organism-based
Rattus norvegicus [4] = test: Antiarthritic activity in type 2 collagen-induced Lewis rat arthritis model assessed as reduction in ankle inflammation at 60 mg/kg, po administered every 12 hrs for 16 days measured on day 17 of post last dose by toluidine blue staining-based assay; format: functional, organism-based
Mus musculus [5] = species: Mus musculus; test: Inhibition of TNP-Ficoll or TNP-KHL-stimulated IgG3 response in mouse in presence of mTOR inhibitor rapamycin by ELISA relative to vehicle-treated control; format: functional
Rattus norvegicus [6] = test: Antiarthritic activity in type 2 collagen-induced Lewis rat arthritis model assessed as reduction in ankle diameter at 10 to 60 mg/kg, po qd administered for 6 days measured every day of compound dosing and day 7 of post last dose; format: functional, organism-based
[7] = Toxicity in complete freund's adjuvant-induced intrathecally dosed Lewis rat arthritis model assessed as body weight loss at 10 to 60 mg/kg, administered intrathecally on day 8 to 20 post arthritis induction measured every second day of compound dosing; format: organism-based; settings: in vivo, icv_or_intrathecal
[8] = target: T1, Phosphatidylinositol 4,5-bisphosphate 3-kinase catalytic subunit delta isoform (Mus musculus) (UniProt O35904); test: Inhibition of PI3Kdelta in LPS or anti-CD40/IL4-stimulated mouse B cells assessed as decrease in IgE response in presence of mTOR inhibitor rapamycin; format: cell-based
T1 sequence (whole entry): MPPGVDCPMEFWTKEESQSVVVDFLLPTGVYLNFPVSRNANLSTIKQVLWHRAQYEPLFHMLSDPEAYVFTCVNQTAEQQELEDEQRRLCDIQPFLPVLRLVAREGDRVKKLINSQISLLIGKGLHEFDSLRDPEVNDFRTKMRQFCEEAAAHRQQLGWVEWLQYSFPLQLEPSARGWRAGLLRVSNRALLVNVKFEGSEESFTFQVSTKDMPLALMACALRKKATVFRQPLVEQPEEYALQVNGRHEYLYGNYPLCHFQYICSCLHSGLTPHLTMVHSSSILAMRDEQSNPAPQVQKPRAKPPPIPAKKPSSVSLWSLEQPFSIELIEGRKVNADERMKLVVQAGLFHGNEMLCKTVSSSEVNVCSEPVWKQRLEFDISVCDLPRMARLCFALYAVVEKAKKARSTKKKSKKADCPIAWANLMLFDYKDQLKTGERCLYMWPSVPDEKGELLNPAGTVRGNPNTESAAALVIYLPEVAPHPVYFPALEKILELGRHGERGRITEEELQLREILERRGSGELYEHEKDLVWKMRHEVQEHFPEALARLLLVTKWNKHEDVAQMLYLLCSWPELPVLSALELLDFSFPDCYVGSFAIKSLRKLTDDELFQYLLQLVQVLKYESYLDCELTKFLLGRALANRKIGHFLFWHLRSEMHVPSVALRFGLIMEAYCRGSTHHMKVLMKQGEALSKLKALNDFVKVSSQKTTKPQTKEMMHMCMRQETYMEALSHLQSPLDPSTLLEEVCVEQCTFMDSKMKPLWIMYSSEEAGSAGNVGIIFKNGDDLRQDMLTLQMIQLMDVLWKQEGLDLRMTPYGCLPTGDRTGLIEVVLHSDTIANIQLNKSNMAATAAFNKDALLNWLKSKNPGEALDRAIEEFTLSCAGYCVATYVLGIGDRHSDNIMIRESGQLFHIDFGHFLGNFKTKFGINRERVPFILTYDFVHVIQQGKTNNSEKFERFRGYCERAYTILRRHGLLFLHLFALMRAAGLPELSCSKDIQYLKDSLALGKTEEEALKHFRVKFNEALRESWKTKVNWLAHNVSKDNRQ

Rattus norvegicus [9] = test: Antiarthritic activity in type 2 collagen-induced po dosed Lewis rat arthritis model assessed as reduction in knee pannus administered every 12 hrs for 16 days measured on day 17 of post last dose by toluidine blue staining-based assay; format: functional, organism-based
Homo sapiens = species: Homo sapiens; test: Inhibition of allergen-induced activation of basophilic granulocytes in human whole blood preincubated for 20 mins followed by allergen induction measured after 20 mins using sub micromolar range of compound by basotest assay; format: functional, tissue-based
Rattus norvegicus [10] = test: Antiarthritic activity in type 2 collagen-induced po dosed Lewis rat arthritis model assessed as reduction in cartilage damage in knee administered every 12 hrs for 16 days measured on day 17 of post last dose by toluidine blue staining-based assay; format: functional, organism-based
Mus musculus [11] = test: Reduction of TNP-Ficoll-induced T cell independent B cell activation in BDA-1 mouse assessed as decrease in IgG3 levels in serum at 10 mg/kg, po bid administered for 7 days by ELISA relative to control; format: functional
Mus musculus [12] = species: Mus musculus; test: Inhibition of TNP-Ficoll or TNP-KHL-stimulated IgE response in mouse in presence of mTOR inhibitor rapamycin by ELISA; format: functional
[13] = target: T1, Phosphatidylinositol 4,5-bisphosphate 3-kinase catalytic subunit delta isoform (Mus musculus); test: Inhibition of PI3Kdelta in LPS or anti-CD40/IL4-stimulated mouse B cells assessed as decrease in IgG response in presence of mTOR inhibitor rapamycin relative to vehicle-treated control; format: cell-based
Rattus norvegicus [14] = test: Antiarthritic activity in type 2 collagen-induced Lewis rat arthritis model assessed as reduction in serum anti-type 2 collagen levels at 10 mg/kg, po administered every 12 hrs for 16 days measured on day 17 of post last dose by ELISA relative to control; format: functional; set-up: scale not given: the % may be the effect or the level left
[15] = Antiproliferative activity against Balb/c mouse splenic B cells preincubated for 30 mins followed by LPS or F(ab')2 donkey anti-mouse IgM and recombinant mouse IL4 stimulation measured after 72 hrs by Alamar Blue reduction assay; format: functional, cell-based
Mus musculus [16] = test: Reduction of TNP-Ficoll-induced T cell independent B cell activation in BDA-1 mouse assessed as decrease in IgG3 levels in serum at 3 mg/kg, po bid administered for 7 days by ELISA relative to control; format: functional
Rattus norvegicus [17] = test: Antiarthritic activity in type 2 collagen-induced Lewis rat arthritis model assessed as reduction in bone resorption in ankle at 60 mg/kg, po administered every 12 hrs for 16 days measured on day 17 of post last dose by toluidine blue staining-based assay; format: functional, organism-based
Rattus norvegicus [18] = test: Antiarthritic activity in type 2 collagen-induced Lewis rat arthritis model assessed as reduction in serum anti-type 2 collagen levels at 60 mg/kg, po administered every 12 hrs for 16 days measured on day 17 of post last dose by ELISA relative to control; format: functional; set-up: scale not given: the % may be the effect or the level left
Mus musculus [19] = test: Reduction of TNP-Ficoll-induced T cell independent B cell activation in BDA-1 mouse assessed as decrease in IgG3 levels in serum at 1 mg/kg, po bid administered for 7 days by ELISA relative to control; format: functional
Rattus norvegicus [20] = test: Antiarthritic activity in type 2 collagen-induced Lewis rat arthritis model assessed as reduction in ankle pannus at 60 mg/kg, po administered every 12 hrs for 16 days measured on day 17 of post last dose by toluidine blue staining-based assay; format: functional, organism-based

With `CC(=O)Nc1nc2ccc(-c3nn(Cc4cc5cccc(C)c5c(=O)n4-c4ccccc4C)c4ncnc(N)c34)cc2s1` the Activity (Rattus norvegicus [1]) was “Active”, the Activity (Rattus norvegicus [2]) was “Active” and the Activity (Rattus norvegicus [3]) was “Dose-dependent effect”. For the same compound, the Activity (Rattus norvegicus [4]) was “Active”, the inhibition (Mus musculus [5]) was “Active” and the Activity (Rattus norvegicus [6]) was “Active”. The Activity [7] was “Toxic”, the inhibition [8] was “Active” and the Activity (Rattus norvegicus [9]) was “Dose-dependent effect”. The inhibition (Homo sapiens) was “Active”, the Activity (Rattus norvegicus [10]) was “Dose-dependent effect” and the “fold change (FC)” value (Mus musculus [11]) was 1.4. For the same compound, the inhibition (Mus musculus [12]) was “Active”, the inhibition [13] was “Active” and the Activity (Rattus norvegicus [14]) was 75%. For the same compound, the pEC50 [15] was greater than 7.00, the “fold change (FC)” value (Mus musculus [16]) was 0.8 and the Activity (Rattus norvegicus [17]) was “Active”. For the same compound, the Activity (Rattus norvegicus [18]) was 86%, the “fold change (FC)” value (Mus musculus [19]) was 0.6 and the Activity (Rattus norvegicus [20]) was “Active”.
